Source: ChEMBL document CHEMBL4196231, “Peptidomimetics for Targeting Protein-Protein Interactions between DOT1L and MLL Oncofusion Proteins AF9 and ENL” (ACS Med Chem Lett, 2018)
Square brackets hold non-standard residues; d marks the D form. Peptide text beside a SMILES is read from it. * marks the point of attachment. Biotinyl(3aR,4S,6aS) = O=C1N[C@H]2[C@H](CCCCC(=O)*)SC[C@H]2N1; Ala(cPent) = N[C@@H](CC1CCCC1)C(=O)O; Dap = NC[C@H](N)C(=O)O; Ahx = NCCCCCC(=O)O

Tests used:
Protein ENL [1] = molecular target: T1, Protein ENL (Homo sapiens, UniProt Q03111); experiment: Displacement of N-Flu-DOT1L from MBP-tagged ENL (unknown origin) (489 to 559 residues) expressed in Escherichia coli BL21(DE3) measured after 3 hrs by fluorescence polarization assay
T1 sequence (Q03111 whole entry): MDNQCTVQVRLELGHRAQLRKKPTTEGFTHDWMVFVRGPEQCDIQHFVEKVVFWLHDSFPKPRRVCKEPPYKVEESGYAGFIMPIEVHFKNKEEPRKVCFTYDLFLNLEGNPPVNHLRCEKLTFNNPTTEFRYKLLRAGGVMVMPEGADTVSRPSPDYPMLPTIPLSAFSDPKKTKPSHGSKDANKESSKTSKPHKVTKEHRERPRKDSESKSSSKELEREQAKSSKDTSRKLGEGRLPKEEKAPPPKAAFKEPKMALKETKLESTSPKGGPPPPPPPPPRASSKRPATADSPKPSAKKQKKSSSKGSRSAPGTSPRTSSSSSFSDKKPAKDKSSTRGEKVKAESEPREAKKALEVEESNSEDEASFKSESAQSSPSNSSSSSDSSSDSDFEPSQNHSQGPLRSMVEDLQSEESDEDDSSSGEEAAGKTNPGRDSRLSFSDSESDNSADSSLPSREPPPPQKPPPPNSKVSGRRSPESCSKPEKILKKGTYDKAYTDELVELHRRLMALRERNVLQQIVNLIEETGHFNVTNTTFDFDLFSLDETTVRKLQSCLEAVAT

Protein AF-9 [2] = molecular target: T2, Protein AF-9 (Homo sapiens, UniProt P42568); experiment: Binding affinity to MBP-tagged AF9 (unknown origin) (487 to 568 residues) expressed in Escherichia coli BL21(DE3) by Bio-layer interferometry
T2 sequence (P42568 whole entry): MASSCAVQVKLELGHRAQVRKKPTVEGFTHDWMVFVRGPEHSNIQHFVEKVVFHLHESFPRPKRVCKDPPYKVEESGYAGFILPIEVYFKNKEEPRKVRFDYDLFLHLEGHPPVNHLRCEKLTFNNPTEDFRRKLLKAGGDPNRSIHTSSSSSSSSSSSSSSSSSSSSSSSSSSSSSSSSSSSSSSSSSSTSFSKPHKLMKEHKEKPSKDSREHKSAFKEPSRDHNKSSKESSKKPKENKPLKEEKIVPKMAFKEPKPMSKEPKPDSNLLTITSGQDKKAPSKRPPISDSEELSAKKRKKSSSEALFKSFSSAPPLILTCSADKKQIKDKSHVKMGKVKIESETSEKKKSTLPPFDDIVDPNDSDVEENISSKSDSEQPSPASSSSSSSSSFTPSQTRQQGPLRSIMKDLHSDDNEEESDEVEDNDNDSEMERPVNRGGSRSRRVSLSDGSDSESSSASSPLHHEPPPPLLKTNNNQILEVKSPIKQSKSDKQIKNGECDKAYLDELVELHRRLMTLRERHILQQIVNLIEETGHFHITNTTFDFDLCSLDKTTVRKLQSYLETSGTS

Protein AF-9 [3] = molecular target: T2, Protein AF-9; experiment: Displacement of N-Flu-DOT1L from MBP-tagged AF9 (unknown origin) (487 to 568 residues) expressed in Escherichia coli BL21(DE3) measured after 3 hrs by fluorescence polarization assay
Protein ENL [4] = molecular target: T1, Protein ENL; experiment: Binding affinity to MBP-tagged ENL (unknown origin) (489 to 559 residues) expressed in Escherichia coli BL21(DE3) by Bio-layer interferometry

Work on `CC(C)C[C@H](NC(=O)[C@@H]1CCCN1C(=O)[C@H](CC1CCCC1)NC(=O)[C@H](CN)NC(=O)[C@@H](NC(=O)[C@@H]1CCCN1C(=O)[C@H](CC(C)C)NC(=O)CCCCCNC(=O)CCCC[C@@H]1SC[C@H]2NC(=O)N[C@@H]12)C(C)C)C(=O)N(C)C` ({Biotinyl(3aR,4S,6aS)-Ahx}-LPV[Dap][Ala(cPent)]PL-NMe2) yielded a Ki (Protein ENL [1]) of 63 nM, a Kd (Protein AF-9 [2]) of 15 nM and a Ki (Protein AF-9 [3]) of 10 nM. The Kd (Protein ENL [4]) was 57 nM.

Ac-LPISIPL-NH2 gave an IC50 (Protein ENL [1]) of 10.3 µM, a Ki (Protein ENL [1]) of 3370 nM and an IC50 (Protein AF-9 [3]) of 1040 nM. The Ki (Protein AF-9 [3]) was 160 nM.

Work on Ac-LPISIPLSTV-NH2 yielded an IC50 (Protein ENL [1]) of 0.63 µM, a Ki (Protein ENL [1]) of 150 nM and an IC50 (Protein AF-9 [3]) of 140 nM. For the same compound, the Ki (Protein AF-9 [3]) was 20 nM.

Ac-LPVSIPL-NH2 was tested, and the IC50 (Protein ENL [1]) was 4.79 µM, the Ki (Protein ENL [1]) was 1430 nM and the IC50 (Protein AF-9 [3]) was 1020 nM. It also gave a Ki (Protein AF-9 [3]) of 160 nM.
